1 molecule from patent US20260357349A1, “METHODS OF IDENTIFYING AND TREATING CANCER” (Agency for Science, Technology and Research, priority 2022, published 2026) can be followed below.

SMILES strings stand for the structures.

In the assay the test system is RELA. Description: Total RELA protein level after bortezomib. It is filed as cell-based, human. Particulars: bortezomib treatment. The protocol: Data are presented as median+/−25%. Lower whisker is smallest observation greater than or equal to 25% quantile-1.5*interquantile range (IQR). Upper whisker represents the largest observation less than or equal to 75%+1.5*IQR. Amount of normalized RELA protein in the c) input or d) co-immunoprecipitated with SMARCA4 from 3 independent runs. […]
Cell lines were harvested with cold RIPA lysis buffer (50 mM Tris pH 8, 150 mM NaCl, 0.1% Triton X-100, 0.5% Sodium deoxycholate, 0.1% SDS) with protease inhibitors (Roche) on ice. […] Protein concentration was measured by Pierce BCA protein assay (Life Technologies). […]

`CC(C)C[C@H](NC(=O)[C@H](Cc1ccccc1)NC(=O)c1cnccn1)B(O)O` [bortezomib]: the “effect on total protein levels of RELA” value is “did not significantly affect”.
